Measurements from US7683055B2, “Lanthionine-related compounds for the treatment of inflammatory diseases” (Oklahoma Medical Research Foundation, priority 2006, dated 2010).

Tests used:
NSC-34 cells = test: NSC-34 viability after glutamate and/or Ca2+ exposure; type: cell-based, mouse; conditions: 1 mM L-glutamate, 1 mM CaCl2 or both, four days
Procedure: NSC-34 motor neuron x neuroblastoma cells were treated with 1 mM L-glutamate, 1 mM CaCl2, or both for four days. (R)-LKE1 was added at t=0 and at t=48 hours, at the indicated concentrations. At the end of four days (t=96 hours) cell viability was assayed by measuring tetrazolium reduction rates using a commercially available kit (Promega).

HT4 cells = test: glutamate toxicity in HT4 cells (LDH leakage); type: cell-based
Procedure: FIG. 13. (R)-LK protects HT4 cells against excitotoxicity. Determination of cell viability: HT4 cells were seeded in 6 well plates (1×10^7 cell/well). After 24 h, cell media was changed and (R)-LK (in DMSO) was used for 1 h prior to glutamate challenge. Powdered (R)-LK was dissolved in DMSO just before use. The viability of cells in culture was assessed by measuring the leakage of lactate dehydrogenase (LDH) from cells to media 18-24 h following glutamate treatment using the in vitro toxicology assay kit from Sigma Chemical Co. (St. Louis, Mo., USA). LDH leakage was determined using the following equation: % of total LDH leaked=(LDH activity in the cell culture media/total LDH activity) where total LDH activity=LDH activity in cell monolayer+LDH activity of detached cells+LDH activity in the cell culture media.
FIG. 14. (R)-LKE1 protects HT4 cells against excitotoxicity. […] The viability of cells in culture was assessed by measuring the leakage of lactate dehydrogenase (LDH) from cells to media 18-24 h following glutamate treatment using the in vitro toxicology assay kit from Sigma Chemical Co. (St. Louis, Mo., USA). LDH leakage was determined using the following equation: % of total LDH leaked=(LDH activity in the cell culture media/total LDH activity) where total LDH activity=LDH activity in cell monolayer+LDH activity of detached cells+LDH activity in the cell culture media. […]

human PB monocytes = test: intracellular TNFα in human peripheral blood monocytes by flow cytometry; type: cell-based
Source text: Identification of TNFα positive monocytes in peripheral blood by flow cytometry: PB monocytes expressing TNF in response to LPS or PG can be identified and counted using flow cytometry with fluorescent antibodies to stain TNFα. To identify the percentage of monocytes expressing TNFα, PB was stimulated with LPS or PG, stained for surface markers to distinguish monocytes from other leukocytes, and stained for intracellular TNFα to identify monocytes expressing TNFα. The percentage of monocytes positive for TNFα was compared among samples stimulated with LPS, PG, with and without pretreatment with (R)-LKE1, and non-stimulated samples.
The fluorescent antibodies used to identify monocytes surface markers were anti-human CD14-phycoerythrin (PE) and andtiCD16b-fluorescein isothyocyanate (FITC), based on staining intensity for each marker. Monocytes are positive for CD14 and negative for CD16b. This method of separating monocytes from neutrophils was confirmed by sorting cells based on CD14/CD16b intensity, preparing slides, staining with May-Grunwald Giemsa and confirming by morphology.
For analysis of CD14 positive, CD16b negative cells we used dot plots. We first excluded lymphocytes from the analysis by their forward scatter (FSC) and side scatter (SSC) properties, drawing a monocyte/neutrophil gate to exclude lymphocytes (not shown). We then identified CD14+, (y-axis) CD16b− (x-axis) cells by comparison with an unstained sample.
A third dye, PE-Cye7 was used for intracellular cytokine staining of TNFα. The TNFα positive monocytes were identified on a second dot plot of SSC vs. TNFα PE-Cye7 for monocytes only. Cells were counted as positive for TNFα expression if the intensity of PE-Cye7 was greater than in the non-stimulated control. The percent of TNFα positive monocytes was calculated using number positive/total number of monocytes.
PB, heparinized, was diluted 1:3 with DMEM. Diluted blood was placed in 1.0 ml aliquots into wells of a non tissue culture plate. PB was pre-incubated at 37° C. for one hour with LKE (1 mM) or the diluent DMSO (10 μl). […]

CCOC(=O)[C@@H]1CSCC(C(=O)O)=N1 [(R)-LKE1]
viability of cells exposed to glutamate and/or Ca2+ (NSC-34 cells): increases the viability | glutamate toxicity (LDH release) (HT4 cells): significantly diminished glutamate toxicity | percent monocytes staining positively for TNFα (human PB monocytes; 1 mM pre-incubation, PG 10 ug/ml): 0.76% | percent monocytes staining positively for TNFα (human PB monocytes; 1 mM pre-incubation, Ultra Pure LPS 1 μg/ml): 25.9% | percent monocytes staining positively for TNFα (human PB monocytes; 1 mM, no stimulus): 0.96%
